From BindingDB's records for doi:10.1021/jm0500875 (Pfizer, 2005)
Structures can show the parent of a compound that is named as a salt.

Legend:
Test in all cases: Enzyme Inhibition Assay
[1] = molecular target: T1, Interstitial collagenase (Homo sapiens, UniProt P03956)
T1 sequence (P03956 whole entry): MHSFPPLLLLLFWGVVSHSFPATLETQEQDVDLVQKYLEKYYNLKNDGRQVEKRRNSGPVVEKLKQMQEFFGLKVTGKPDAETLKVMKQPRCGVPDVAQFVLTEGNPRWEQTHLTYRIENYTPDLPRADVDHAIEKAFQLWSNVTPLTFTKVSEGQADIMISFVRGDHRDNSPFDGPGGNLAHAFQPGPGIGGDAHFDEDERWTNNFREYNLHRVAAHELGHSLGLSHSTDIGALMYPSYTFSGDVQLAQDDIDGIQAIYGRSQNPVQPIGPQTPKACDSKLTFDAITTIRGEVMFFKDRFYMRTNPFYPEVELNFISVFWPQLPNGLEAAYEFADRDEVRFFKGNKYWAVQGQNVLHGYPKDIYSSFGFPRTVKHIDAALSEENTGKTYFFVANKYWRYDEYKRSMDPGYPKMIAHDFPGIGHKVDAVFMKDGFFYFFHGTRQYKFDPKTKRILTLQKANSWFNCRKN
Protocol: (§1) Inhibitors were assayed against purified hMMP-1, hMMP-2, hMMP-3, hMMP-8, hMMP-9, and hMMP-13 using an enzyme assay based on cleavage of the quenched fluorogenic peptide substrate. The increase in fluorescence due to cleavage of the substrate was measured with a fluorescence microplate reader. The Ki values were calculated by nonlinear regression analysis using the percent inhibition, and Km values of the substrates for each MMP.

[2] = molecular target: Stromelysin-1 (Homo sapiens, UniProt P08254)
Chain of Stromelysin-1 (P08254 whole entry): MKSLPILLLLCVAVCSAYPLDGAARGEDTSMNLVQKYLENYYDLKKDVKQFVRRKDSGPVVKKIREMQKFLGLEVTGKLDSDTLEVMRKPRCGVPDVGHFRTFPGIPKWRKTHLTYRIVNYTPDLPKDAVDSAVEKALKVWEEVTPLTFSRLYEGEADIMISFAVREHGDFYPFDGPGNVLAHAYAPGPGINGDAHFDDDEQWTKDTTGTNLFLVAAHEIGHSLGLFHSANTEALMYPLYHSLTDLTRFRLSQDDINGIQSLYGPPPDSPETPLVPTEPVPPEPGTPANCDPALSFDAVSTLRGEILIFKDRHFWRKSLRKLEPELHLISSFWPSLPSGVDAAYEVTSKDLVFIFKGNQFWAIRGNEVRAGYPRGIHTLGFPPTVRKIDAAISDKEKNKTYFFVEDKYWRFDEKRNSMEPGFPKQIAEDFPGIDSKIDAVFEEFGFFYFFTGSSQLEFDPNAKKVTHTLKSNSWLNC
Protocol: as §1

[3] = molecular target: Neutrophil collagenase (Homo sapiens, UniProt P22894)
Chain of Neutrophil collagenase (P22894 whole entry): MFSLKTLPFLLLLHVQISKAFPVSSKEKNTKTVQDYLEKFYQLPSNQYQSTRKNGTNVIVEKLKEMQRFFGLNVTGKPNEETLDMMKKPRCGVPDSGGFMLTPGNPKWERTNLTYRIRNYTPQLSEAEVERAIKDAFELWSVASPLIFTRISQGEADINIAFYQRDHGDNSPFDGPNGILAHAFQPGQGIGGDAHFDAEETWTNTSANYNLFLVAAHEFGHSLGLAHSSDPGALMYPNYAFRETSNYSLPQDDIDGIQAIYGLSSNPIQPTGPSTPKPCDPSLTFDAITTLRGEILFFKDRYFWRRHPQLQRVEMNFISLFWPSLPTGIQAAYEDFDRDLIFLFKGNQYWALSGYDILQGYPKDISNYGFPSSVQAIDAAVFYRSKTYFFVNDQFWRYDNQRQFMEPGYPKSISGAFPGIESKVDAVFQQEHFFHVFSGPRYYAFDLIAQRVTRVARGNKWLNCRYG
Protocol: as §1

[4] = molecular target: Matrix metalloproteinase-9 (Homo sapiens, UniProt P14780)
Chain of Matrix metalloproteinase-9 (P14780 whole entry): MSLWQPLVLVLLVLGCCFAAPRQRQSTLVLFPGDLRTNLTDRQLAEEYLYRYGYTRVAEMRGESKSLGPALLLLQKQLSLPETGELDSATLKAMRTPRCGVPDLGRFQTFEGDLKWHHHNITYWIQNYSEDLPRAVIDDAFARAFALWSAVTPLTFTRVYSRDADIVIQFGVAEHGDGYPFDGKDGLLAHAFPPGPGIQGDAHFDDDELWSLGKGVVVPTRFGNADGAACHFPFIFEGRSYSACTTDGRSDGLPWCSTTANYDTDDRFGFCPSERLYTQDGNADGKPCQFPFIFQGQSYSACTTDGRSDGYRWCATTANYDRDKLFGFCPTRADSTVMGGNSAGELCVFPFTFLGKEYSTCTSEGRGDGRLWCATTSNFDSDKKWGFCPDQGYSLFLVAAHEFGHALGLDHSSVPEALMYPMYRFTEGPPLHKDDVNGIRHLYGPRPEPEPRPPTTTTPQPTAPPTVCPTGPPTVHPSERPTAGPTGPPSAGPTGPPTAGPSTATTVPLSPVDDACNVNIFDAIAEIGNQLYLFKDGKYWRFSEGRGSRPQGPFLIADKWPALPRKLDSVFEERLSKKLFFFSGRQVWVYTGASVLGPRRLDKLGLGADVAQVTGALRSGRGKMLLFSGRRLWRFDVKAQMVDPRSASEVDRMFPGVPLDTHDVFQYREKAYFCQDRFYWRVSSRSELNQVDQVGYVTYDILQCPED
Protocol: as §1

[5] = molecular target: 72 kDa type IV collagenase (Homo sapiens, UniProt P08253)
Chain of 72 kDa type IV collagenase (P08253 whole entry): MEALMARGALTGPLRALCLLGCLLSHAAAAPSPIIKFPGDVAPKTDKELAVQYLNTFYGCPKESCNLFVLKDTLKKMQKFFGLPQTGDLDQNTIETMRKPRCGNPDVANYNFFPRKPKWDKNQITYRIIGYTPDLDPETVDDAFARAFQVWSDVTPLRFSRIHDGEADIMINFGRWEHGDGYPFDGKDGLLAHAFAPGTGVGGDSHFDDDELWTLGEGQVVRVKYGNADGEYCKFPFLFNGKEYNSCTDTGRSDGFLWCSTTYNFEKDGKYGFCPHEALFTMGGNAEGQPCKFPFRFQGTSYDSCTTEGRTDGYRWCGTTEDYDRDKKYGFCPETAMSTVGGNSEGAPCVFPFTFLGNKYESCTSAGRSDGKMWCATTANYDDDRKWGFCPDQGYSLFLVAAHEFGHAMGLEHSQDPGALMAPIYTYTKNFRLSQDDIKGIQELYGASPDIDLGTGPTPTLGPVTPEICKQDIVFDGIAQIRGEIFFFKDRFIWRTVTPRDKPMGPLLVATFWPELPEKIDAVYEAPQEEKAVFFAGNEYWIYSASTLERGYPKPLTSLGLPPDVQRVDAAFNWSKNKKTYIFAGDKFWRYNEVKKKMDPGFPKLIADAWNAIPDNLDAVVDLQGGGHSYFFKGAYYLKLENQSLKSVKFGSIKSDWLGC
Protocol: as §1

[6] = molecular target: Collagenase 3 (Homo sapiens, UniProt P45452)
Protocol: as §1

SMILES	Ki ([1]; pH 7.5, 25 °C) [nM]	Ki [2] [nM]	Ki [3] [nM]	Ki [4] [nM]	Ki [5] [nM]	Ki [6] [nM]	Ki [1] [nM]
O=C(NO)C1(CS(=O)(=O)c2ccc(Oc3ccc(Cl)cc3)cc2)CCOCC1	800	17.5	1.8				
O=C(NO)C1(CS(=O)(=O)c2ccc(Oc3ccccc3)cc2)CCN(CCc2ccccc2)CC1	700	42.5	3	9	0.3		
C#CCN1CCC(CS(=O)(=O)c2ccc(Oc3ccccc3)cc2)(C(=O)NO)CC1	417	35		4.5	0.25	0.55	
O=C(NO)C1(S(=O)(=O)c2ccc(Oc3ccccc3)cc2)CCN(CC2CC2)CC1 [1-(Cyclopropylmethyl)-N-hydroxy-4-[(4-phenoxyphenyl)sulfonyl]piperidine-4-carboxamide Hydrochloride]	770				< 0.1	< 0.1	
CC(=O)N1CCC(C(=O)NO)(S(=O)(=O)c2ccc(Oc3ccccc3)cc2)CC1 [1-Acetyl-N-hydroxy-4-{[4-(phenoxyphenyl]sulfonyl}-piperidine-4-carboxamide]						< 0.1	464
O=C(NO)C1(S(=O)(=O)c2ccc(Sc3ccccc3)cc2)CCN(C2CC2)CC1 [1-Cyclopropyl-N-hydroxy-4-{[4-(phenylthio)phenyl]-sulfonyl}piperidine-4-carboxamide Hydrochloride]		23.5	3.5	2.5	0.1	0.2	> 10000
CC(=O)N1CCC(C(=O)NO)(S(=O)(=O)c2ccc(Sc3ccccc3)cc2)CC1 [1-acetyl-N-hydroxy-4-{[4-(phenylsulfanyl)benzene]sulfonyl}piperidine-4-carboxamide]		23	5	8	0.4	0.6	7300
O=C(NO)C1(S(=O)(=O)c2ccc(Oc3ccccc3)cc2)CCN(C2CC2)CC1 [1-cyclopropyl-N-hydroxy-4-[(4-phenoxybenzene)sulfonyl]piperidine-4-carboxamide hydrochloride]		0.3		0.6	0.2		
CCN1CCC(C(=O)NO)(S(=O)(=O)c2ccc(Sc3ccccc3)cc2)CC1 [1-ethyl-N-hydroxy-4-{[4-(phenylsulfanyl)benzene]sulfonyl}piperidine-4-carboxamide hydrochloride]					0.8	0.8	> 10000
C#CCN1CCC(CS(=O)(=O)c2ccc(Oc3ccc(C)c(C)c3)cc2)(C(=O)NO)CC1 [4-({[4-(3,4-Dimethylphenoxy)phenyl]sulfonyl}methyl)-N-hydroxy-1-prop-2-ynylpiperidine-4-carboxamide Hydrochloride]		18.1		7	0.9	0.8	
O=C(NO)C1(S(=O)(=O)c2ccc(Oc3ccc(Cl)cc3)cc2)CCOCC1 [4-{[4-(4-chlorophenoxy)benzene]sulfonyl}-N-hydroxyoxane-4-carboxamide]		18.1			< 0.1		
CN1CCC(C(=O)NO)(S(=O)(=O)c2ccc(Sc3ccccc3)cc2)CC1 [N-Hydroxy-1-methyl-4-{[4-(phenylthio)phenyl]sulfonyl}-piperidine-4-carboxamide Hydrochloride]		39.3		9.4	0.5	0.68	> 10000
C#CCN1CCC(C(=O)NO)(S(=O)(=O)c2ccc(Oc3ccccc3)cc2)CC1 [N-Hydroxy-4-{[4-(phenoxyphenyl]sulfonyl}-1-(2-propynyl)4-piperidinecarboxamide, Monohydrochloride]	274	12.6		0.4	0.13	0.22	
COCCN1CCC(C(=O)NO)(S(=O)(=O)c2ccc(Oc3ccccc3)cc2)CC1 [N-hydroxy-1-(2-methoxyethyl)-4-[(4-phenoxybenzene)sulfonyl]piperidine-4-carboxamide hydrochloride]	350	0.3		0.7	0.1	0.1	
COCCN1CCC(C(=O)NO)(S(=O)(=O)c2ccc(Sc3ccccc3)cc2)CC1 [N-hydroxy-1-(2-methoxyethyl)-4-{[4-(phenylsulfanyl)benzene]sulfonyl}piperidine-4-carboxamide hydrochloride]		20	4	3	0.3	0.5	> 10000
COc1cccc(CN2CCC(CS(=O)(=O)c3ccc(Oc4ccccc4)cc3)(C(=O)NO)CC2)c1 [N-hydroxy-1-[(3-methoxyphenyl)methyl]-4-{[(4-phenoxybenzene)sulfonyl]methyl}piperidine-4-carboxamide hydrochloride]	330	18.1		1.1	0.2	0.4	
CS(=O)(=O)N1CCC(C(=O)NO)(S(=O)(=O)c2ccc(Oc3ccccc3)cc2)CC1 [N-hydroxy-1-methanesulfonyl-4-[(4-phenoxybenzene)sulfonyl]piperidine-4-carboxamide]				1	0.3	0.5	800
CS(=O)(=O)N1CCC(C(=O)NO)(S(=O)(=O)c2ccc(Sc3ccccc3)cc2)CC1 [N-hydroxy-1-methanesulfonyl-4-{[4-(phenylsulfanyl)benzene]sulfonyl}piperidine-4-carboxamide]		32	4	14.7	2	2.6	> 10000
CN1CCC(C(=O)NO)(S(=O)(=O)c2ccc(Oc3ccccc3)cc2)CC1 [N-hydroxy-1-methyl-4-[(4-phenoxybenzene)sulfonyl]piperidine-4-carboxamide hydrochloride]	464			0.29	< 0.1	0.1	
O=C(CS(=O)(=O)c1ccc(Oc2ccccc2)cc1)NO [N-hydroxy-2-[(4-phenoxybenzene)sulfonyl]acetamide]					2.6	5.1	6600
CC(C)(C(=O)NO)S(=O)(=O)c1ccc(Oc2ccccc2)cc1 [N-hydroxy-2-methyl-2-[(4-phenoxybenzene)sulfonyl]propanamide]					0.1	0.25	220
O=C(NO)C1(S(=O)(=O)c2ccc(Oc3ccccc3)cc2)CCNCC1 [N-hydroxy-4-[(4-phenoxybenzene)sulfonyl]piperidine-4-carboxamide]	1060	59	3.5	5	0.22	0.37	
C=CCN1CCC(C(=O)NO)(S(=O)(=O)c2ccc(Sc3ccccc3)cc2)CC1 [N-hydroxy-4-{[4-(phenylsulfanyl)benzene]sulfonyl}-1-(prop-2-en-1-yl)piperidine-4-carboxamide hydrochloride]					0.15	0.3	> 10000
C#CCN1CCC(C(=O)NO)(S(=O)(=O)c2ccc(Sc3ccccc3)cc2)CC1 [N-hydroxy-4-{[4-(phenylsulfanyl)benzene]sulfonyl}-1-(prop-2-yn-1-yl)piperidine-4-carboxamide hydrochloride]		13	1.8		0.33		8660
O=C(NO)C1(CS(=O)(=O)c2ccc(Oc3ccccc3)cc2)CCNCC1 [N-hydroxy-4-{[(4-phenoxybenzene)sulfonyl]methyl}piperidine-4-carboxamide hydrochloride]	2400	158	2.4	30	2.8	8	
CC(C)(C)OC(=O)N1CCC(CS(=O)(=O)c2ccc(Oc3ccccc3)cc2)(C(=O)NO)CC1 [tert-Butyl 4-[(Hydroxyamino)carbonyl]-4-{[(4-phenoxyphenyl)sulfonyl]methyl}piperidine-1-carboxylate]	475				0.2	0.2	
CC(C)(C)OC(=O)N1CCC(C(=O)NO)(S(=O)(=O)c2ccc(Oc3ccccc3)cc2)CC1 [tert-butyl 4-(hydroxycarbamoyl)-4-[(4-phenoxybenzene)sulfonyl]piperidine-1-carboxylate]	1140				0.2	0.3	
